Test results published in patent US9597360B2, “Method of treatment for pulpitis and/or enhancement for dentinogenesis” (National Center for Geriatrics and Gerontology, priority 2008, dated 2017).

Assays:
HUVEC [1] = assay: Anti-apoptotic effect, staurosporine-induced apoptosis (Annexin V-FITC/Propidium Iodide flow cytometry); assay type: cell-based, human
Protocol: NNGH was added 30 minutes before adding MMP3. As a control, cells were cultured in EBM-2 without adding any in the presence of staurosporine. Four hours later, HUVEC was detached from the dish and stained with Annexin V-FITC (Roche) and Propidium Iodide (Sigma) in a cell suspension for 15 minutes and measured ratio of necrosis and apoptosis in flow cytometer JSAN (Bay Bioscience, Kobe).

[2] = tested on: Human umbilical vein endothelial cells (HUVECs); assay: Proliferative effect on endothelial cells (Tetra-color one, 450 nm absorbance); assay type: cell-based; conditions: HUVEC
Protocol: Human umbilical vein endothelial cells (HUVECs) (KURABO Industries, Osaka,) were seeded with 1,000 cells per 96 well. […] Ten μl of Tetra-color one (Seikagaku Kogyo, Co., Tokyo, Japan) was added to the 96 well plate, and cell numbers were measured using spectrophotometer at 450 nm absorbance at 2, 12, 24, 36, 48, 60 hours of culture. Wells without cells were served as negative controls.

[3] = tested on: amputated pulp of rat upper incisor; assay: Rat pulp amputated model; assay type: in vivo
Protocol: After pulpotomy of rat upper incisor, and wash with a saline, 50 ng of MMP3 adsorbed in spongel was applied to the amputated pulp. As a control, 50 ng of MMP3 and 30 nmol NNGH adsorbed in spongel was applied to the amputated pulp. The cavity was temporally sealed with a bonding agent and a photopolymerization type composite resin (Unifil low flow, GC, Tokyo). 24 hours, 72 hours, or 7 days after application, the paraffin sections of the 5 μm thickness were examined morphologically after HE staining or Masson Trichrome staining.
For quantitative analysis of newly formed blood vessels, each 5 frozen sections at 24 hours after treatment both with MMP3 and control PBS from 4 incisors each, total 40 sections were stained with Fluorescein Griffonia (Bandeiraea) Simplicifolia lectin (BS1-lectin) as described above. Three rectangles of a standardized size (0.1 mm^2) were drawn in the upper part of pulp tissue under the amputated site in every five sections from one sample. The lectin-positive area relative to total area (1.5 mm^2) was quantitatively analyzed in a standardized procedure using BZ-II Analyzer (Keyence) software on a Keyence BZ-9000 fluorescence microscope (Keyence, Tokyo, Japan). The data were presented as means±standard deviation at 4 determinations.
To evaluate effect of MMP3 on proliferation, immunohistochemical analysis of Proliferating Cell Nuclear Antigen (PCNA) was performed. Paraffin sections of 24 hours after treatment were deparaffinized and antigen was retrieved by antigen unmasking solution (Vector Laboratories, Burlingame, Calif.) according to the manufacturer's instructions. Endogenous peroxidase activity and nonspecific staining were blocked as described earlier. The sections were incubated with anti-PCNA antibody (Dako) at dilutions of 1:100 in antibody diluent (Dako) overnight at 4° C., and further incubated with a peroxidase-conjugated secondary antibody (ImmPRESS reagent; Vector Laboratories) for 30 min at room temperature. After development by DAB Liquid System (Dako), sections were counterstained with hematoxylin, and photographed on an Olympus Vanox-s microscope (Olympus, Tokyo, Japan). For quantitative analysis of proliferating cells, each 3 paraffin sections at 24 hours after treatment both with MMP3 and control PBS from 4 incisors each were used. Three rectangles of a standardized size (0.1 mm^2) were drawn in the upper part of pulp tissue under the amputated site in every 3 sections. The positive staining cells were counted and quantitatively analyzed. The data were presented as means±standard deviation at 4 determinations.
For quantitative analysis of matrix formation, each 5 paraffin sections at 72 hours after treatment both with MMP3 and control PBS from 4 incisors each, and 5 sections at 7 days after treatment with MMP3, NNGH, and control PBS from 4 incisors each were stained with Masson's trichrome staining. The positive area was quantitatively analyzed in the upper part of pulp tissue under the amputated site, 2 mm in depth from the amputated site, using BZ-II Analyzer software. The data were presented as means±standard deviation at 4 determinations.

[4] = tested on: amputated pulp of dog upper premolar teeth; assay: Dog pulpotomy model; assay type: in vivo; conditions: 100 ng MMP3 in spongel, 14 days
Protocol: After pulpotomy of dog upper premolar teeth, the amputated pulp was washed with 5% sodium hypochlorite solution and 3% hydrogen peroxide and further was washed with a saline, 100 ng of MMP3 absorbed in spongel was applied on the amputated pulp. Furthermore, the cavity was provisionally filled with phosphate cement and sealed with a chemical polymerization composite resin after application of a bonding agent. The tooth was extracted 14 days after treatment and fixed with 4% paraformaldehyde fixation at 4° C. overnight and decalcified at 4° C. in 10% formic acid for one week. Reparative dentin formation was observed after HE staining under light microscopy in the longitudinal paraffin 5 μm-section.

HUVEC [5] = assay: Modified Boyden chamber migration assay; assay type: cell-based, human
Protocol: Modified Boyden chamber assay was performed at 37° C. with a PET membrane (BD Bioscience, Franklin Lakes, N.J.) of 24 well for 24 hours. In the presence of 10 ng/ml of MMP3, 100 ng/ml of MMP3, 100 ng/ml of MMP3 and 0.13 μmol of NNGH, 50 ng/ml of MMP10, 50 ng/ml of MMP10 and 0.13 μmol of NNGH, 0.13 μmol of NNGH only, or 50 ng/ml of VEGF-A, 5×10^4 cells of HUVEC was cultured in the upper part of the chamber. As a control, a 0.02% bovine serum albumin (Sigma) was used. After incubations, HUVEC which migrated to the lower part of the membrane was detached by trypsin treatment and counted. […] The data represented the mean±SD of 4 samples.

[6] = tested on: pulp cells from rat upper incisor; assay: Induction of odontoblast differentiation using pulp cells (Dspp, enamelysin real-time RT-PCR); assay type: cell-based; conditions: MMP3 100 ng/ml, 14 days and 21 days
Protocol: Pulp cells were isolated from rat upper incisor by the trypsin and collagenase digestion method and cultured in DMEM (Sigma, St. Louis, Mo., USA) including L-ascorbic acid phosphoric acid magnesium salt (Wako pure medicine) and 10% of […] fetal bovine serum (SAFC Biosciences, Lenexa, Kans., USA) and 100 unit/ml penicillin G, 100 μg/ml streptomycin (Invitrogen, Carlsbad, Calif., USA). MMP3 was added 100 ng/ml of MMP3, or 0.13 μmol of NNGH and 50 ng/ml human recombinant BMP2 to the cells at second passage of culture after confluence. Total RNA was extracted 14 days or 21 days after and analyzed expression of odontoblastic differentiation markers, dentin sialophosphoprotein (Dspp) and enamelysin by Real-time RT-PCR (table 1). […] When MMP3 was added, the differentiation inductive effect into odontoblasts in particular was […] in comparison without adding MMP3 of the control 14 days and 21 days after treatment.

[7] = tested on: inflamed pulp (pulpitis) of dog upper premolar tooth; assay: Dog pulpitis model; assay type: in vivo
Protocol: The inflammation of the pulp was produced be open with cotton for 24 hours after pulpotomy in the dog upper premolar tooth. Subsequently 100 ng of MMP3 absorbed in spongel was applied to the amputated pulp after washing with 5% sodium hypochlorite solution and 3% hydrogen peroxide and further with a saline. Furthermore, the cavity was filled with phosphate cement and temporally sealed with a chemical polymerization composite resin after application with a bonding agent. The tooth was extracted 14 days later, immersed at 4° C. overnight and followed by fixation and decalcification at 4° C. in 10% formic acid for one week. The reparative dentin formation was observed by an light microscope after H.E. staining at 5 μm-paraffin sections. FIG. 11A is a figure of micrograph showing healing of pulpitis state 14 days after MMP3 application in the upper premolar tooth of the dog in which pulpitis had been produced. FIG. 11B is a figure of micrograph of the high power to show healing of pulpitis state 14 days after MMP3 application in the upper premolar tooth of the dog in which pulpitis had been produced. FIG. 11C is a figure of micrograph 14 days in case of the PBS control of the upper premolar tooth of the dog in which pulpitis produces had been produced. FIG. 11D is a figure of micrograph of the high power 14 days in case of the PBS control of the upper premolar tooth of the dog n which pulpitis had been produced.

CN[C@@H]1C[C@H]2O[C@@](C)([C@@H]1OC)n1c3ccccc3c3c4c(c5c6ccccc6n2c5c31)C(=O)NC4 [Staurosporine, reference compound]
apoptosis, % of cells (HUVEC [1]; Staurosporine 100 nM alone, four hours): 52%

MMP3: human MMP3 (Chemicon); protein of the MMP family, referred to as stromelysin 1; active ingredient of the medicament
increase of proliferation, 48-hour application in comparison with 2-hour application ([2]; MMP3 50 ng/mL): approximately 10 times | PCNA positively staining cells ([3]; 50 ng MMP3, 24 hours after pulpotomy, pulp under the amputated site): 98.5 cells/mm^2 | increase of the vascularization density versus PBS group ([3]; 50 ng MMP3, 24 hours, BS1-lectin positive area): double | newly formed blood vessels stained with BS1-lectin under the amputated surface, in comparison with MMP3 free group ([3]; 50 ng MMP3 in spongel, 24 hours after pulpotomy): more detected | PCNA positively staining cells, increase versus non applied group ([3]; 24 hours after pulpotomy): 2.7 times | osteodentin formation around newly differentiated odontoblasts/osteodentinoblasts (Masson's Trichrome staining) ([3]; 72 hours after application): observed | DSPP mRNA expression in newly differentiated odontoblasts/osteodentinoblasts (in situ hybridization) ([3]; 72 hours after pulpotomy): seen | amount of osteodentin in comparison with non applied MMP3 (HE staining) ([3]; 72 hours after pulpotomy): larger amount | inflammatory cell infiltration (HE staining) ([3]; 72 hours after pulpotomy): not observed | dentin matrix formation under the amputated site, increase in comparison with PBS control group ([3]; 72 hours after pulpotomy, P<0.01): 3.8 times | apoptotic cells (HUVEC [1]; MMP3 50 ng/ml added at the same time of Staurosporine 100 nM, four hours): 20% | cell proliferation in the vicinity of the amputated surface [4]: a large number | reparative dentin formation in the upper part of the amputated pulp [4]: a large quantity | migration promotion effect on HUVEC in comparison with control (HUVEC [5]; 10 ng/ml, 24 hours): significant difference was not detected | migration of HUVEC, increase compared with the control (HUVEC [5]; 100 ng/ml, 24 hours, control 0.02% bovine serum albumin): approximately 3.5 times | differentiation inductive effect into odontoblasts (Dspp, enamelysin mRNA) in comparison with control without MMP3 [6]: not seen | proliferation under the amputated pulp ([7]; 100 ng MMP3, 14 days): seen | reparative dentin formation ([7]; 100 ng MMP3, 14 days): sometimes observed | vascularization ([7]; 100 ng MMP3, 14 days): enhanced | inflammation state of the pulp ([7]; 100 ng MMP3 in spongel, 14 days): very slight

COc1ccc(S(=O)(=O)N(CC(=O)NO)CC(C)C)cc1 [NNGH, N-Isobutyl-N-(4-methoxyphenylsulfonyl)-glycylhydroxamic acid, reference compound]
proliferative effect of MMP3 when NNGH added at the same time ([2]; MMP3 50 ng/mL with NNGH 0.13 μM): restrained | proliferative effect in comparison with the no addition group of MMP3 ([2]; NNGH added): almost the same | dentin matrix formation in comparison with PBS control group ([3]; 7 days after pulpotomy, P<0.01): Significant decrease | anti-apoptotic effect of MMP3 when NNGH added at the same time (HUVEC [1]; 50 ng/ml MMP3 with 0.13 μmol NNGH, staurosporine 100 nM): inhibited | migration effect of MMP3 when NNGH added at the same time (HUVEC [5]; HUVEC, 100 ng/ml MMP3 and 0.13 μmol NNGH): inhibited

MMP10/Stromelysin-2: MMP-10 (R&D Systems); an isomer of MMP3
proliferative effect ([2]; MMP-10 50 ng/mL): did not have | anti-apoptotic effect (HUVEC [1]; 50 ng/ml of MMP10, staurosporine 100 nM): did not have | migration effect (HUVEC [5]; HUVEC, 50 ng/ml of MMP10): did not have
